Experimental data published in publication PMC10619691, “Effect of cyclic substituents on the anti-cancer activity and DNA interaction of ruthenium(II) bis-phenanthroline dipyridoquinoline” (Frontiers in Molecular Biosciences, 2023).

Columns and labels:
A2780 ovarian cancer = test: sulphorhodamine B (SRB) cytotoxicity assay; format: cell-based, human; settings: SRB assay, 72 h incubation; mean ± SEM
Protocol: (§1) The cytotoxicity profile of the ruthenium complexes […]-572, and POW-12A was assessed in various cancer cell lines, namely, human cervical cancer HeLa, prostate cancer cell line DU145, breast cancer cell line MDAMB231MB231, ovarian cancer cell line A2780, and cisplatin-resistant ovarian cancer cell line A2780-CP70, using the preferred screen of the National Cancer Institute, the sulphorhodamine (SRB) dye assay, and the trypan blue cell viability assay ([Skehan et al., 1990]; [Houghton et al., 2007]; [Strober, 2001]). To determine their selective toxicity profile, these complexes were also tested in a normal prostate cell line (PTN1A). From the similarity in chemical structures of the compounds, we deduced that a structure-activity relationship study will help elucidate key properties involved in the cytotoxic activity of this class of metal complexes. The sulphorhodamine B (SRB) assay was used to evaluate the cytotoxicity of each cancer line after treating them with the metal complexes in line with the previously established protocol ([Skehan et al., 1990]). A cell density of 3 × 10^4 cells/mL was treated with various concentrations (3, 10, 30, 50, and 100 μM) of each ruthenium complex by 1:200 dilutions of stock solutions (in DMSO) in culture media, using DMSO as a control. Then, 100 μL of the cell-drug suspension was added to the respective wells of a 96-well plate and incubated at 37°C for 72 h in a CO2-containing incubator. Following this, the cells were fixed using 25 ul of Carnoy's solution and left in the fridge (4°C) for 1 h. The plates were then rinsed with running water and tapped on paper to remove dead cells. The cells were then stained with 100 μL of sulphorhodamine B dye and left for 30 min, after which the dye was washed off using 1% acetic acid, and the plate was left to dry in the oven (60°C). The stained cells were then treated with 100 μL of Tris base (10 mM, pH 10) to solubilize the dye stain. Finally, the plates were analyzed using an Omega plate reader. Each assay was conducted in triplicate. % Cell response=Average of treated cells / Average of control cells x 100.

[1] = test system: A280-CP70 cisplatin-resistant ovarian cancer; test: sulphorhodamine B (SRB) cytotoxicity assay; format: cell-based, human; settings: for IC50: SRB assay, 72 h incubation, mean ± SEM
Protocol: as §1

DU145 prostate cancer = test: sulphorhodamine B (SRB) cytotoxicity assay; format: cell-based, human; settings: 72 h incubation, mean ± SEM
Protocol: as §1

HeLa cervical cancer = test: sulphorhodamine B (SRB) cytotoxicity assay; format: cell-based, human; settings: 72 h incubation, mean ± SEM
Protocol: as §1

MDA-MB-231 (TNBC) = test: sulphorhodamine B (SRB) cytotoxicity assay; format: cell-based, human; settings: 72 h incubation, mean ± SEM
Protocol: as §1

PNT1A normal prostate = test: sulphorhodamine B (SRB) cytotoxicity assay; format: cell-based, human; settings: SRB assay, 72 h incubation; mean ± SEM
Protocol: as §1

DU145 cells = test: cell cycle analysis; format: cell-based, human; settings: DU145, after 72 h; control 1%
Protocol: (§2) The cell cycle of cervical HeLa and prostate DU145 cancer cells was studied after treatment with VNK-572 and cisplatin, respectively (Figure 3). VNK-572 and cisplatin both reduced the G2 population after 72 h compared to control (e.g., 16%–11% in Hela (p = 0.06) and from 17% to 2% in the DU145 cell line (p = 0.003) for VNK-572) (Figure 3A). […] The DU145 cells saw a decrease in both phases following 72 h of treatment—from 68% to 40% and from 11% to 5% for the G1 and S phases, respectively (Figure 3A).

HeLa cells [2] = test: cell cycle analysis; format: cell-based, human
Protocol: as §2

HeLa cells [3] = test: Annexin V apoptosis assay; format: cell-based, human
Protocol: To further analyze the cytotoxicity mechanisms, annexin V was used to determine whether VNK-572/cisplatin exerts an anti-cancer activity through apoptosis. The Annexin V assay was performed following the established procedure. The steps included treating the cells with the complex for 24, 48, and 72 h in 6-well plates and incubating at 37°C. The cells were then rinsed with PBS, trypsinized, and neutralized using culture media. The cells were then spun in the centrifuge at 2500 RPM for 3 min, and the supernatant was discarded. The cell pellet was then washed first with PBS and then with ×1 binding buffer. The cells were then suspended in approximately 1 mL of binding buffer (1–5 million cells), and approximately 100 ul of this suspension was stained with 5 μL of annexin V-APC dye for 15 min. The cells were then washed with binding buffer and resuspended in 200 μL of binding buffer before being stained with 5 ul of propidium iodide. The cells were then analyzed using a flow cytometer within 4 h.

various cell lines = test: epi-fluorescence nuclear staining (nuclear morphology); format: cell-based; settings: 72 h treatment, DAPI staining; cisplatin at 5 μM
Protocol: To assess the nuclear morphological changes caused by ruthenium complexes on the cell lines, the cells were stained using 4′,6-diamidino-2-phenylindole DAPI dye and analyzed under an EVOS epi-fluorescence microscope at a magnification of ×60 ([Lewandowska et al., 2013]). The protocol involves treating the cells with the complexes, culturing them in 6-well plates, and incubating them at 37°C for 72 h. The cells were then rinsed with PBS, trypsinized, and neutralized using culture media. The cells were then spun in a centrifuge at 2500 RPM for 3 min, and the supernatant was discarded. The cell pellet was then fixed with 15 μL of Carnoy’s solution, resuspended, and spread on a microscope slide. When the cells were dried, 2–3 drops of DAPI were dropped on the smear in the dark and covered with a slip. The slides were then viewed under the epi-fluorescence microscope, and the nuclei were characterized qualitatively. A total of 30 cells per slide were counted, and the number of cells with various nuclear morphologies was recorded. Cells were then classed as normal, chromatin-condensed, swollen, nuclear-condensed, and nuclear-fragmented cells based on their nuclear morphology.

[4] = partition coefficient (log P), shake-flask method; format: physicochemical; settings: phosphate buffered saline (pH 7.4) / 1-octanol
From the text: The role of lipophilicity in the activity of ruthenium (II) polypyridyl complexes is one that has been extensively reported ([Notaro and Gasser, 2017]). […] Based on this, we carried out a partition coefficient (log P) test using a shake-flask method to determine whether the marginal structural differences between VNK-754, VNK-572, and POW-12A affect their lipophilicity and to examine whether such a difference in lipophilicity confers any advantage to their anti-cancer activity. The log P results, as presented in Table 2, clearly show VNK-572 (0.014) and POW-12A (0.077) to be more lipophilic than VNK-754 (−0.874). […] Thus, along with varied DNA intercalating properties, this explains, in part, why there are appreciable differences in the cytotoxic effects of VNK572 and POW12A compared to VNK-754, even though they are generally similar in structure. For example, VNK-572 with an additional benzene ring can penetrate the bi-lipid-layered cell membrane better and achieve higher cellular and nuclear concentrations than VNK-754, producing a greater anti-tumor effect.
To study the lipophilicity of our complexes, we used the shake-flask method at 25.0 °C ± 0.1°C in line with the previously reported protocol ([Dubey et al., 2017]). Equal volumes of the aqueous phase (phosphate buffered saline, pH 7.4) and the 1-octanol phase were pre-saturated with each other overnight. A known amount of the complexes (respectively) was added to the aqueous phase, ensuring our final concentration was within the range of UV spectroscopic analysis; then, an equal volume of the pre-saturated […] phase was added. Both phases were then mixed in a conical flask and left shaking on a thermostatic shaker at a speed of 100 rpm overnight at room temperature. […] Considering that lipophilic compounds will partition into the octanol phase, the concentration of the complexes left in the aqueous phase was analyzed, respectively, by UV spectroscopy; then, the Log P value was calculated: Logp = Log10 ([solute] un-ionized octanol/[solute] un-ionized water).

HeLa cells [5] = test: cellular localization by confocal fluorescence microscopy; format: cell-based, human; settings: 50 μM, 2 h incubation, co-localization with DAPI
Protocol: This was further confirmed by the co-localization of these complexes with a nuclear counterstain (DAPI) (Figure 2).
Fluorescence microscopy was used to study cellular localization. HeLa cells were seeded on autoclaved coverslips in the 6-well plate and incubated at 37°C for 48 h, after which the culture media were replaced with media containing VNK-572 (50 μM) and VNK-754 (50 μM), respectively, and further incubation was performed for 2 h. Following this, the cells were fixed with Carnoy’s solution and washed twice with PBS thereafter. Finally, the HeLa cells were counterstained with DAPI, and the seeded coverslips were inverted and placed on slides for examination. A Leica confocal microscope was used for the observation of the samples using a magnification of ×63.

[6] = test system: RF I φX174 supercoiled circular DNA; test: supercoiled DNA unwinding by atomic force microscopy; format: binding; settings: AFM; P/D = 14 for POW-12A and VNK-572, P/D = 5 for VNK-754
Protocol: FIGURE 7 AFM height images RF I φX174 on a magnesium-soaked mica surface over an area of 2 µm. Samples with the ruthenium complex had solution mixing ratios of P/D = 14 for POW-12A and VNK-572; and of P/D = 5 VNK-754.
Samples for atomic force microscopy (AFM) were prepared on mica crystals cut into squares of approximately 1 cm^2. These squares were stuck with double-sided tape to a 15-mm diameter metal disc. Before sample preparation, Cellotape was used to remove the top layer of the mica crystal, giving a freshly cleaved surface layer on which the sample is to be deposited. Mica was soaked in a 0.1 M solution of MgCl2 for 5 min and blown dry, and Mg^2+ was used to help DNA (negatively charged) adhere to the negatively charged surface of the mica. For solutions containing DNA and POW-12A or VNK-572, a P/D value of 14 was used. For the solution containing DNA and VNK-754, a P/D value of 5 was used. Then, 2 μL of the solution was pipetted onto the mica surface and left for 10 min until the solvent had evaporated, leaving the DNA adhered to the surface. To remove excess salt, each sample was washed three times with 10 µL nanopure water, drying with nitrogen after each wash. AFM was conducted using a Bruker Multi-mode 2 atomic force microscope operated with a NanoScope V controller. ScanAsyst-AIR AFM tips were purchased from Bruker. Scans were run in tapping mode using ScanAsyst, measuring height, peak force error, and phase. The spring constant was adjusted to the spring constant of the tip, which is 0.4 N m^−1 for ScanAsyst-AIR tips; feedback parameters were set automatically by ScanAsyst Auto. Scans were run over 2 μm^2 areas with 512 lines. Images were prepared using NanoScope analysis software. Raw data were processed using first-order flattening and third-order plane fitting. If the background required smoothening due to large molecules on the surface, first-order flattening with a threshold of Z < 0.05 nm was used to improve the appearance of the background. […]

Row | Compound | IC50 (A2780 ovarian cancer) [µM] | IC50 [1] [µM] | resistance factor (IC50 A2780-CP70/IC50 A2780) ([1]; from SRB IC50 values) | IC50 (DU145 prostate cancer) [µM] | IC50 (HeLa cervical cancer) [µM] | IC50 (MDA-MB-231 (TNBC)) [µM] | IC50 (PNT1A normal prostate) [µM] | sub-G1 population (DU145 cells) [%] | changes in G1 / S phases (HeLa cells [2]) | sub-G1 population (HeLa cells [2]; 72 h of treatment, control 5% (VNK-572), 6% (cisplatin)) [%] | Q2 (propidium iodide and annexin V APC-stained cells), late-stage apoptosis (HeLa cells [3]; 72 h of treatment, control 2%) [%] | Q4 (annexin V APC), early apoptosis (HeLa cells [3]; 72 h of treatment, control 14% (VNK-572), 13% (cisplatin)) [%] | Q1 (necrosis) (HeLa cells [3]; after 72 h of treatment) [%] | nuclear morphology (various cell lines) | LogP [4] | cellular localization (HeLa cells [5]) | unwinding of supercoiled circular DNA [6]
1 | N.N.[Cl][Pt][Cl] [Cisplatin, cisplatin, reference compound] | 2 | 4 ± 0.58 | two-fold | 2.4 ± 0.09 | 6 ± 0.58 | 37 ± 8.08 | 3.8 ± 0.58 | 62 | increase in S-phase arrest | 25 | 9 | 39 | < 6 | nuclear swelling | – | – | –
2 | F[P-](F)(F)(F)(F)F.F[P-](F)(F)(F)(F)F.[Ru+2].c1cnc2c(c1)c1cccnc1c1ncccc21.c1cnc2c(c1)ccc1cccnc12.c1cnc2c(c1)ccc1cccnc12 [VNK-754, ruthenium (II) bis-phenanthroline dipyridoquinoline] | 74 ± 14.4 | > 100 | – | > 100 | > 100 | > 100 | > 100 | – | – | – | – | – | – | – | −0.874 | penetrate the nucleus | unwound
